How the values were obtained:
tGNBP-2 [1] = test: In-vitro binding interference assay with FITC-labeled LPS; design: species or system N. corniger; settings: increasing concentrations, FIG. 5A
Description: Isolated tGNBP-2 or rhCD14 (R&D Systems, Minneapolis, Minn.) were linked to 3.0μ diameter polystyrene beads (Polysciences) by a 3-hour incubation in boric acid (0.1M, pH 8.5) followed by 3 washes in cold PBS containing 0.1% v/v rabbit serum. Formaldehyde-inactivated pathogenic strains were labeled with FITC as previously described (41). Beads were incubated with labeled pathogens in buffer at 37° C. for 30 minutes and analyzed by flow cytometry. For interference assays, tGNBP-2-adsorbed beads were incubated with either LPS or laminarin at various concentrations, then directly stained with FITC-labeled LPS (Sigma) and analyzed by FACS.

[2] = test system: termites infected with M. anisopliae; test: In-vivo survival and exposure assays; design: species or system N. corniger
Description: Conidia (approx. 3×10^7/mL) were centrifuged at 12,000×g for 1 minute and then suspended in 600 μL 0.1% Tween 80 by vortexing. Two groups of 12 large workers were exposed to filter paper (Watman 5) moistened with these suspensions in 35×15 mm petri dishes for 20 hours. The filter paper was replaced with sterile water-moistened filter paper and dead termites were removed after a daily census of survivorship. tGNBP-2 treatment was performed with conidia suspended in a sample of the immunoprecipitated protein overnight at 25° C., followed by extensive washing in PBS containing 0.1% Tween 80. Dead termites were removed daily, surface sterilized with 70% ethanol and incubated in sterile plates at RT for 4 days for post mortem analysis. For exposure to laminarin or LPS, filter papers were moistened with 300 μL of 0.5 mg/mL or 5 mg/mL solutions of either carbohydrate. Termites were kept on moist filter paper for 24 hours prior to exposure with conidia (10^7/mL). Controls included termites that were not exposed to sugars and/or conidia (0.1% Tween 80). Data were analyzed by Mann-Whitney U test and Wilcoxon Signed Rank tests with Bonferroni corrections for multiple testing. Termite survival data were analyzed by Cox Regression Analysis. Flow histogram SDs were calculated using software produced half-peak coefficients of variance (% HPCV×mean). Data are presented as means±SD.

tGNBP-2 expression [3] = test: tGNBP-2 expression following exposure of termites to LPS or laminarin; assay type: in vivo, N. corniger; settings: 0.5 or 5 mg/mL, FIG. 4F
Description: Anti-tGNBP-2 antibodies were raised in rabbits and purified by standard methods (GenScript, Piscataway, N.J.). Antibodies were covalently linked to 1.0μ diameter Dynabeads® MyOne™ carboxylic acid functionalized magnetic beads (Invitrogen) according to the manufacturer's instructions. Fresh termite extract was diluted 1:1 with IP buffer (25 mM Tris-HCl pH 7.6, 150 mM NaCl, 1% v/v NP-40, 1% v/v protease inhibitor cocktail), and incubated with beads for 1 hour at RT. Beads were isolated, washed with IP buffer, and eluted with a commercial neutral pH buffer (Pierce, Rockford, Ill.). Eluate was desalted and concentrated using a centrifugal column (Vivaspin 10K, Sartorius, Goettingen, Germany) and reconstituted in sodium acetate (0.1M, pH 5.5). SDS-PAGE and western blots were performed and developed by standard procedures; loading amounts were validated by BCA assay. Anti-tGNBP-2 was used at 2.5 μg/mL followed by anti-rabbit HRP (Cell Signaling) at 1:1000. Blots were visualized on a Kodak ImageStation 2000R. […] Conidia (approx. 3×10^7/mL) were centrifuged at 12,000×g for 1 minute and then suspended in 600 μL 0.1% Tween 80 by vortexing. Two groups of 12 large workers were exposed to filter paper (Watman 5) moistened with these suspensions in 35×15 mm petri dishes for 20 hours. […]

tGNBP-2 [4] = test: β(1,3)-glucanase activity assay (flow cytometric microsphere assay, zymogram); assay type: biochemical, N. corniger; settings: dose/response, FIG. 5C
Description: (§1) FIG. 2 provides results from a microsphere-based flow cytometric assay for β(1,3)-glucanase activity. Laminarin was labeled at the reducing end with rhodamine green X-succinyl ester, stably adsorbed on 3.0μ-diameter polystyrene microspheres in carbonate/bicarbonate buffer at pH=9.6 and washed in 100 mM sodium acetate pH 5.5. Samples were then incubated with the fluorescent microspheres for varying time periods starting from 15 min and analyzed by flow cytometry. Purified β(1,3)-glucanase at 100 μg/mL (0.1 mU/mL) and sodium acetate buffer alone were used as positive and negative controls, respectively. Finally, fluorescence data were transformed to % activity and plotted vs. samples or concentrations. β(1,3)-glucanase activity was measured by a gel electrophoresis assay (39) and by a flow cytometric method developed (FIG. 2). Briefly, samples were run on Carboxymethyl Curdlan REmazol Brilliant Blue (CN-Curdlan-RBB, Lowe Biochemica, Germany). […] Samples were mixed with 1 μL of the microsphere suspension, incubated for 15-30 minutes at 37° C. and analyzed by flow cytometry. Commercially available purified β(1,3)-glucanase from Helix pomatia or Bacilus subtilis was used at 0.1 mU/mL as positive control and results were expressed as % activity of this control.

other β-glucanases = test: β(1,3)-glucanase activity assay, tGNBP-2-depleted termite lysate; assay type: biochemical, N. corniger; settings: tGNBP-2-depleted lysate, FIG. 5C
Description: as §1

tGNBP-2 expression [5] = test: Induction of tGNBP-2 by laminarin challenge on isolated termite cells, Western blot; assay type: cell-based, N. corniger; settings: 20 mM, FIG. 5E
Description: N. corniger workers, large workers or soldiers (whole termites or isolated tissues) were surface sterilized (brief wash with 5% hypochlorite and 3 washes with sterile water) and homogenized in acetate buffer (200 mM, pH 5.0, 4 μL/termite) with Biomasher® columns (pore size 80-145μ, […], San Carlos, Calif.) according to the manufacturer's instructions. Cuticular washes were prepared by gently agitating chilled workers in 0.1% Tween 80 for 5 seconds (10 μL/worker). Wash samples were concentrated with a P10 Microcon® filter (Millipore, Billerica, Mass.). Termite hemocytes were collected from hemolymph drawn from 10 chilled N. corniger workers (1 μL/termite) using a micropipette and kept in ice-cold Burns-Tracy saline as described previously (37). Whole cell preparations were obtained by gentle trituration of termites in ice-cold Burns-Tracy saline. Anti-tGNBP-2 antibodies were raised in rabbits and purified by standard methods (GenScript, Piscataway, N.J.). Antibodies were covalently linked to 1.0μ diameter Dynabeads® MyOneTM carboxylic acid functionalized magnetic beads (Invitrogen) according to the manufacturer's instructions. Fresh termite extract was diluted 1:1 with IP buffer (25 mM Tris-HCl pH 7.6, 150 mM NaCl, 1% v/v NP-40, 1% v/v protease inhibitor cocktail), and incubated with beads for 1 hour at RT. […]

[6] = test system: SAPK/JNK signaling in hemocytes; test: Intracellular flow cytometry for SAPK/JNK phosphorylation in termite hemocytes; assay type: cell-based, N. corniger
Description: N. corniger workers, large workers or soldiers (whole termites or isolated tissues) were surface sterilized (brief wash with 5% hypochlorite and 3 washes with sterile water) and homogenized in acetate buffer (200 mM, pH 5.0, 4 μL/termite) with Biomasher® columns (pore size 80-145μ, […], San Carlos, Calif.) according to the manufacturer's instructions. Cuticular washes were prepared by gently agitating chilled workers in 0.1% Tween 80 for 5 seconds (10 μL/worker). Wash samples were concentrated with a P10 Microcon® filter (Millipore, Billerica, Mass.). Termite hemocytes were collected from hemolymph drawn from 10 chilled N. corniger workers (1 μL/termite) using a micropipette and kept in ice-cold Burns-Tracy saline as described previously (37). Whole cell preparations were obtained by gentle trituration of termites in ice-cold Burns-Tracy saline. Hemocyte staining was performed in 0.1% w/v BSA, 0.01% w/v NaN3 in PBS, 30 min on ice per antibody with a single wash with buffer between antibodies (38). Primary antibodies: anti-tGNBP-2 (5 μg/mL) or rabbit IgG (5 μg/mL, Sigma, St. Louis, Mo.); secondary antibody: anti-rabbit PE (1:400, Invitrogen, Carlsbad, Calif.). […] Flow cytometry was performed on a Beckman-Coulter Cell Lab QuantaTM SC MPL-automated flow cytometer and analyzed with Quanta AnalysisTM software.

termite gut symbionts = settings: reference 34; cited from earlier work
M. anisopliae conidia = test: Antifungal assays and combinatorial cytotoxicity mapping on conidia; assay type: cell-based, Metarhizium anisopliae
Description: This mix was incubated for 18-24 hours at 25° C., then plated onto potato dextrose agar 100×15 mm plates and supplemented with 50 μg/mL ampicillin CFUs were counted following a 4-day incubation at 25° C. Femtoliter changes in conidial cell volume were directly measured by flow cytometry. Samples of M. anisopliae conidia in sodium acetate (0.1M, pH 5.5) were incubated in 384 well plates with samples from HPLC fractions in different combinations (F1+F1, F1+F2, F1+F3 . . . F2+F2, F2+F3 . . . F3+F3 . . . , 10 μL of each fraction) overnight at 25° C. and analyzed by flow cytometry. tGNBP-2 was depleted from 250 μL of each fraction as described above, and supernatants were collected and used for the assay.

Compound	interference with fluorescent LPS binding to bead-linked tGNBP-2 (tGNBP-2 [1])	resistance to M. anisopliae infection ([2]; termites exposed to 0.5 or 5 mg/mL for 24 hours prior to conidia, FIG. 4E)	tGNBP-2 expression following exposure (tGNBP-2 expression [3])	blocking of the β(1,3)-glucanase activity of tGNBP-2 (tGNBP-2 [4])	effect on other β-glucanases (other β-glucanases)	induction of tGNBP-2 by laminarin challenge (tGNBP-2 expression [5])	hemocyte population whose activation is affected ([6]; two hemocyte populations expressing tGNBP-2)	SAPK/JNK phosphorylation activation response of hemocytes ([6]; β(1,3)-D-glucan challenge, FIG. 5D)	blocking of gut symbiont pathways for polysaccharide utilization (termite gut symbionts)	susceptibility to infection with tGNBP-2-treated conidia ([2]; conidia treated with isolated tGNBP-2 prior to infection)	mortality of termites in the absence of active infection ([2]; no infection)	mortality of termites infected with M. anisopliae ([2]; treated for 24 hours prior to infection, FIG. 6)	direct toxic effect on conidia (M. anisopliae conidia)
laminarin	does not interfere	improved resistance	significant upregulation										
O=C1O[C@H](CO)[C@@H](O)[C@H](O)[C@H]1O [GDL, D-δ-gluconolactone]				efficiently blocked	left other β-glucanases intact	blocks induction	affected only the activation of granular hemocytes	inhibited this activation response	not blocked	restored susceptibility to infection	caused accelerated mortality	accelerated mortality	no direct toxic effect

Source: patent publication US9006212B2, “Compositions and methods for pest control” (Massachusetts Institute of Technology, priority 2009, dated 2015)
